Laboratory results: PMC4019636, “Rational Design of Berberine-Based FtsZ Inhibitors with Broad-Spectrum Antibacterial Activity” (PLoS ONE, 2014)
≈ marks a conversion by molar mass, not a printed value. Where two headings read alike, the source gives them in different places.

Key:
B. subtilis 168 = experiment: Antimicrobial susceptibility assay (broth microdilution MIC); assay type: cell-based
Source text: (§1) The bacterial strains S. aureus ATCC 29213, S. aureus ATCC 29247, S. aureus ATCC BAA-41, E. faecium ATCC 49624, E. faecium ATCC 700221, E. faecalis ATCC 29212, S. epidermidis ATCC 12228, E. coli ATCC 25922, and K. pneumoniae ATCC BAA-1144 used in the antimicrobial susceptibility assays were purchased from American Type Culture Collection (ATCC, USA). B. subtilis strain 168 was already available in our in-house collection. E. coli JM109 WM647 was kindly provided by Dr. W. Margolin (University of Texas-Houston Medical School). FM 4–64 was purchased from Invitrogen (Eugene, Oregon). All other chemicals and reagents were purchased from Sigma-Aldrich. Stock solutions were prepared in DMSO. The final percentage of DMSO in the assays was 1% (v/v) for all experiments.
(§2) Antimicrobial susceptibility tests were conducted in 96-well microplates using the broth microdilution procedure described in the Clinical and Laboratory Standards Institute (CLSI) guidelines. Cation-adjusted Mueller Hinton broth for S. aureus strain ATCC 29213, methicillin-resistant S. aureus strain ATCC BAA-41 and ampicillin-resistant S. aureus strain ATCC 29247, or brain heart infusion broth for antibiotic-susceptible E. faecium strain ATCC 49624 and vancomycin-resistant E. faecium strain ATCC 700221, or Mueller Hinton broth for antibiotic-susceptible strains B. subtilis strain 168, E. faecalis strain ATCC 29212 and E. coli strain ATCC 25922 were used in the assays. After incubation for 18 h at 37°C, the absorbance at 600 nm (A600) was recorded using a microplate reader (Bio-Rad laboratory Ltd., UK) and the percentage of bacterial cell inhibition with respect to vehicles (1% DMSO) was calculated. The MIC was defined as the lowest compound concentration at which the growth of bacteria was inhibited by ≥90%. Three independent assays were performed for each test.

E. coli ATCC 25922 = experiment: as above; assay type: cell-based; settings: Escherichia coli
Source text: as §1, §2

E. faecalis ATCC 29212 = experiment: as above; assay type: cell-based; settings: Enterococcus faecalis
Source text: as §1, §2

[1] = tested on: K. pneumoniae ATCC BAA-1144; experiment: as above; assay type: cell-based; settings: Klebsiella pneumoniae
Source text: as §1, §2

S. aureus ATCC 29213 = experiment: as above; assay type: cell-based; settings: Staphylococcus aureus
Source text: as §1, §2

S. aureus ATCC 29247 = experiment: as above; assay type: cell-based; settings: Staphylococcus aureus
Source text: as §1, §2

S. aureus ATCC BAA-41 = experiment: as above; assay type: cell-based; settings: Staphylococcus aureus
Source text: as §1, §2

[2] = tested on: S. epidermidis ATCC 12228; experiment: as above; assay type: cell-based; settings: Staphylococcus epidermidis
Source text: as §1, §2

S. aureus FtsZ = molecular target: T1, S. aureus FtsZ (Staphylococcus aureus, UniProt P0A031); experiment: Light scattering assay of FtsZ polymerization; assay type: biochemical; settings: 1 mM compound; negative control
T1 construct: made in house; host or cells: E. coli BL21(DE3)
T1 sequence (P0A031 1-390): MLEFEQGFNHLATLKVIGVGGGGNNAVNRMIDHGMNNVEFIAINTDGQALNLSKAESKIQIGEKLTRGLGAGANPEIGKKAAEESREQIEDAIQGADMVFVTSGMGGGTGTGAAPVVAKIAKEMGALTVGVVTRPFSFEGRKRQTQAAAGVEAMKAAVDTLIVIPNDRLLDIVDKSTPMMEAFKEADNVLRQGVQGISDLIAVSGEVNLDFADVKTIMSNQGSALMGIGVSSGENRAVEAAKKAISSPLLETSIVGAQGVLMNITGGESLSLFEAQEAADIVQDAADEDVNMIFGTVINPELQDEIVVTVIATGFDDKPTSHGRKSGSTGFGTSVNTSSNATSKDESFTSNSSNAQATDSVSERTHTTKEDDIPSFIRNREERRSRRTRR
Description: E. coli BL21(DE3) cells were transformed with the pRSET-A-S vector carrying S. aureus FtsZ with a 6-histidine tag attached at its N-terminus under the control of a T7 promoter. […] When the OD600 reached 0.8, protein expression was induced with 0.4 mM isopropyl-β-D-thiogalactopyranoside (IPTG) for 4 h. Cells were harvested by centrifugation at 9000 rpm for 20 min at 4°C. The cell pellet was resuspended in 20 mL of solubilization buffer (50 mM Tris-HCl, 150 mM NaCl, 1 mM PMSF and 1 mM EDTA, pH 7.4) and then lysed with 1 mg/mL of lysozyme. The mixture was incubated for 1 h on ice. The cells were disrupted by sonication and the crude lysate obtained was centrifuged at 13,000 rpm for 1 h at 4°C. The supernatant containing 6-histidine tagged S. aureus FtsZ was collected and loaded onto a nickel charged HiTrap chelating column pre-equilibrated with starting buffer (20 mM sodium phosphate buffer, 0.5 M NaCl, pH 7.4). The column was then washed with 8 column volumes of the starting buffer to remove the unbound proteins, and the histidine-tagged enzyme was eluted by a linear gradient of 0−0.2 M imidazole. Fractions containing S. aureus FtsZ were pooled, buffer-exchanged with 20 mM NH4HCO3 (pH 8.0) at 4°C, lyophilized, and stored at −20°C. A stock solution of S. aureus FtsZ for the subsequent bioassay was prepared from the lyophilized powder.
The light scattering assay was performed using a protocol adapted from the literature. The polymerization and depolymerization of recombinant S. aureus FtsZ was measured using 90° light scattering in a thermostatically (37°C) controlled fluorescence spectrometer (Perkin Elmer, USA). Both excitation and emission wavelengths were set to 600 nm with a slit width of 2.5 nm. S. aureus FtsZ (6 µM) in 50 mM of MOPS buffer (pH 6.5) was incubated with vehicle (1% DMSO) or different concentrations of the test compound for 10 min at 25°C. 50 mM KCl and 10 mM MgCl2 were then added to establish a baseline. After 8 min, a final concentration of 1 mM GTP was added at the last fraction and the increase in light scattering was measured for an additional 2000s. The rate and extent of polymerization were measured. Appropriate blanks were subtracted from all experimental data. Moreover, in order to rule out unselective inhibition by formation of aggregates, control experiments with 0.01% (v/v) Triton X-100 from a freshly prepared 1% (v/v) stock solution were performed for berberine and compound 2 [40], [41]. Reported results are the average of three independent experiments.

E. faecium ATCC 49624 = experiment: Antimicrobial susceptibility assay (broth microdilution MIC); assay type: cell-based; settings: Enterococcus faecium
Source text: as §1
(§3) Antimicrobial susceptibility tests were conducted in 96-well microplates using the broth microdilution procedure described in the Clinical and Laboratory Standards Institute (CLSI) guidelines. […] After incubation for 18 h at 37°C, the absorbance at 600 nm (A600) was recorded using a microplate reader (Bio-Rad laboratory Ltd., UK) and the percentage of bacterial cell inhibition with respect to vehicles (1% DMSO) was calculated. The MIC was defined as the lowest compound concentration at which the growth of bacteria was inhibited by ≥90%. Three independent assays were performed for each test.

E. faecium ATCC 700221 = experiment: as above; assay type: cell-based; settings: Enterococcus faecium
Source text: as §1, §3

[3] = Bacillus subtilis, B. subtilis 168, Mueller Hinton broth, 18 h at 37°C, growth inhibited by ≥90%, read-out: MIC
[4] = ATCC25922, E. coli ATCC 25922, Mueller Hinton broth, 18 h at 37°C, growth inhibited by ≥90%, read-out: MIC
[5] = ATCC29212, E. faecalis ATCC 29212, Mueller Hinton broth, 18 h at 37°C, growth inhibited by ≥90%, read-out: MIC
[6] = ATCCBAA1144, K. pneumoniae ATCC BAA-1144 (Gram-negative, expressing AmpC β-lactamase), 18 h at 37°C, growth inhibited by ≥90%, read-out: MIC
[7] = ATCC29213, S. aureus ATCC 29213, cation-adjusted Mueller Hinton broth, 18 h at 37°C, growth inhibited by ≥90%, read-out: MIC
[8] = ATCC29247, S. aureus ATCC 29247 (ampicillin-resistant), 18 h at 37°C, growth inhibited by ≥90%, read-out: MIC
[9] = ATCCBAA41, S. aureus ATCC BAA-41 (methicillin-resistant), 18 h at 37°C, growth inhibited by ≥90%, read-out: MIC
[10] = ATCC12228, S. epidermidis ATCC 12228, 18 h at 37°C, growth inhibited by ≥90%, read-out: MIC

| SMILES | MIC (B. subtilis 168; [3]) [µg/mL] | MIC (E. coli ATCC 25922; [4]) [µg/mL] | MIC (E. faecalis ATCC 29212; [5]) [µg/mL] | MIC [1, 6] [µg/mL] | MIC (S. aureus ATCC 29213; [7]) [µg/mL] | MIC (S. aureus ATCC 29247; [8]) [µg/mL] | MIC (S. aureus ATCC BAA-41; [9]) [µg/mL] | MIC [2, 10] [µg/mL] | further results |
| --- | --- | --- | --- | --- | --- | --- | --- | --- | --- |
| CC1(C)S[C@@H]2[C@H](NC(=O)[C@H](N)c3ccccc3)C(=O)N2[C@H]1C(=O)O [Ampicillin, reference compound] | 0.1 (≈ 0.286 µM) | 6 (≈ 17.2 µM) | 6 (≈ 17.2 µM) | > 96 | 1.5 (≈ 4.29 µM) | 48 (≈ 137 µM) | > 96 | 3 (≈ 8.59 µM) | effect on the polymerization of S. aureus FtsZ (S. aureus FtsZ): no effect |
| COc1ccc2cc3[n+](cc2c1OCCCBr)CCc1cc2c(cc1-3)OCO2 [Compound 7] | 112 | 384 | > 196 | > 384 | 112 | 112 | 196 | 112 | MIC (E. faecium ATCC 49624; ATCC49624, E. faecium ATCC 49624, brain heart infusion broth, 18 h at 37°C, growth inhibited by ≥90%, read-out: MIC): > 196 µg/mL; MIC (E. faecium ATCC 700221; ATCC700221, E. faecium ATCC 700221 (vancomycin-resistant), brain heart infusion broth, 18 h at 37°C, growth inhibited by ≥90%, read-out: MIC): > 196 µg/mL |
| CN[C@H](CC(C)C)C(=O)N[C@H]1C(=O)N[C@@H](CC(N)=O)C(=O)N[C@H]2C(=O)N[C@H]3C(=O)N[C@H](C(=O)N[C@H](C(=O)O)c4cc(O)cc(O)c4-c4cc3ccc4O)[C@H](O)c3ccc(c(Cl)c3)Oc3cc2cc(c3O[C@@H]2O[C@H](CO)[C@@H](O)[C@H](O)[C@H]2O[C@H]2C[C@](C)(N)[C@H](O)[C@H](C)O2)Oc2ccc(cc2Cl)[C@H]1O [Vancomycin, vancomycin, reference compound] |  |  |  |  |  |  |  |  | MIC (E. faecium ATCC 49624; ATCC49624, 18 h): 1 µg/mL (≈ 0.69 µM); MIC (E. faecium ATCC 700221; ATCC700221, 18 h): > 96 µg/mL; MIC (B. subtilis 168; Bacillus subtilis, 168, 18 h): 1 µg/mL (≈ 0.69 µM); MIC (E. coli ATCC 25922; ATCC25922, 18 h): 2 µg/mL (≈ 1.38 µM); MIC (E. faecalis ATCC 29212; ATCC29212, 18 h): 1 µg/mL (≈ 0.69 µM); MIC ([1]; ATCCBAA1144, 18 h): 6 µg/mL (≈ 4.14 µM); MIC (S. aureus ATCC 29213; ATCC29213, 18 h): 1 µg/mL (≈ 0.69 µM); MIC (S. aureus ATCC 29247; ATCC29247, 18 h): 1 µg/mL (≈ 0.69 µM); MIC (S. aureus ATCC BAA-41; ATCCBAA41, 18 h): 2 µg/mL (≈ 1.38 µM); MIC ([2]; ATCC12228, 18 h): 1 µg/mL (≈ 0.69 µM) |
